Experimental findings from publication PMC12951562, “SH2scan: Mapping SH2 Domain-Ligand Binding Selectivity for Inhibitors and Degraders” (Journal of Medicinal Chemistry, 2026) are described below.

Non-standard residues stand in square brackets, D forms with d. Residues, ends and D or L forms follow the SMILES beside them. pY = N[C@@H](Cc1ccc(OP(=O)(O)O)cc1)C(=O)O

What all share (test): biochemical
Type in all cases: binding

In experiment [1] the target is T1, GRAP (Homo sapiens, UniProt Q13588).
T1 construct: the DNA-tagged SH2 domain concentrations used in this study were <0.1 nM; made in house; host or cells: HEK293 (transient transfection; unpurified extract)

Experiment [2] has as its target T2, SRMS (Homo sapiens, UniProt Q9H3Y6).
T2 construct: made in house; host or cells: HEK293 (transient transfection), unpurified extract

The target of experiment [3] is T3, GRB2 (Homo sapiens, UniProt P62993).
T3 construct: the DNA-tagged SH2 domain concentrations used in this study were <0.1 nM; made in house; host or cells: HEK293 (transient transfection; unpurified extract)

Experiment [4] deals with T4, GADS (Homo sapiens, UniProt O75791).
T4 construct: the DNA-tagged SH2 domain concentrations used in this study were <0.1 nM; made in house; host or cells: HEK293 (transient transfection; unpurified extract)
T4 sequence (O75791 58-149 limits assumed): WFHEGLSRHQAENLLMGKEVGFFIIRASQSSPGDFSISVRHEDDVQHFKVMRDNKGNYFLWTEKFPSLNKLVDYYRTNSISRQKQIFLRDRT

The target in experiment [5] is T5, HSH2D (Homo sapiens, UniProt Q96JZ2).
T5 construct: the DNA-tagged SH2 domain concentrations used in this study were <0.1 nM; made in house; host or cells: HEK293 (transient transfection, unpurified extract)
T5 sequence (Q96JZ2 34-125 limits assumed): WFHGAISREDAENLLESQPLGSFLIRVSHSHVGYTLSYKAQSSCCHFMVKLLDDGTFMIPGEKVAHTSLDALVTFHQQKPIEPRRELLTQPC

Experiment [6] concerns the target T6, BLK (Homo sapiens, UniProt P51451).
T6 construct: the DNA-tagged SH2 domain concentrations used in this study were <0.1 nM; made in house; host or cells: HEK293 (transient transfection; unpurified extract)
The conditions noted are these: dose-response; read-out: KD.

For experiment [7], the target named is T7, FYN (Homo sapiens, UniProt P06241).
T7 construct: the DNA-tagged SH2 domain concentrations used in this study were <0.1 nM; made in house; host or cells: HEK293 (transient transfection; unpurified extract)
To be noted: dose-response; read-out: KD.

In experiment [8] the target is T8, YES (Homo sapiens, UniProt P07947).
T8 construct: the DNA-tagged SH2 domain concentrations used in this study were <0.1 nM; made in house; host or cells: HEK293 (transient transfection; unpurified cell extract)
The conditions noted are these: dose-response; read-out: KD.

Experiment [9] addresses T9, CBLB (Homo sapiens, UniProt Q13191).
T9 construct: the DNA-tagged SH2 domain concentrations used in this study were <0.1 nM; made in house; host or cells: HEK293 (transient transfection; unpurified extract)

Experiment [10] has as its target T10, CBLC (Homo sapiens, UniProt Q9ULV8).
T10 construct: the DNA-tagged SH2 domain concentrations used in this study were <0.1 nM; made in house; host or cells: HEK293 (transient transfection; unpurified extract)
T10 sequence (Q9ULV8 219-321 limits assumed): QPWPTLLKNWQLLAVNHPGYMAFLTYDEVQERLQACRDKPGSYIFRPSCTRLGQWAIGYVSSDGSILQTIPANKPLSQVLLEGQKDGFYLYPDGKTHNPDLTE

The target in experiment [11] is T11, PIK3R1(SH2dom.N-term.) (Homo sapiens, UniProt P27986).
T11 construct: SH2dom.N-term. denotes SH2 domain closest to N-terminus of protein; made in house; host or cells: HEK293 (transient transfection, unpurified extract)

For experiment [12], the target named is T12, PIK3R2(SH2dom.N-term.) (Homo sapiens, UniProt O00459).
T12 construct: SH2dom.N-term. denotes SH2 domain closest to N-terminus of protein; made in house; host or cells: HEK293 (transient transfection, unpurified extract)

The target of experiment [13] is T13, PIK3R3(SH2dom.N-term.) (Homo sapiens, UniProt Q92569).
T13 construct: SH2dom.N-term. denotes SH2 domain closest to N-terminus of protein; made in house; host or cells: HEK293 (transient transfection, unpurified extract)

For experiment [14], the target named is T14, FRK (Homo sapiens, UniProt P42685).
T14 construct: the DNA-tagged SH2 domain concentrations used in this study were <0.1 nM; made in house; host or cells: HEK293 (transient transfection; unpurified extract)
To be noted: dose-response; read-out: KD.

T7 sequence (P06241 149-246 limits assumed): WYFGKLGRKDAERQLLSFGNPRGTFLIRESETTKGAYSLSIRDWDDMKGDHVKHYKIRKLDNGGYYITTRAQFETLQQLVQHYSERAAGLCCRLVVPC
T9 sequence (Q13191 241-343 limits assumed): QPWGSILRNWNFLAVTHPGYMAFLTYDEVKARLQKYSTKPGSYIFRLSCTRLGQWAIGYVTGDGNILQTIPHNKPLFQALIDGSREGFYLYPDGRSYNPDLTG
T11 sequence (P27986 333-428 limits assumed): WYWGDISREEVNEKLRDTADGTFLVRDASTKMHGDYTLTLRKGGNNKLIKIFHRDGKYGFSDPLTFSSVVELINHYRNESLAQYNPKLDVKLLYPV
T1 sequence (Q13588 60-154 limits assumed): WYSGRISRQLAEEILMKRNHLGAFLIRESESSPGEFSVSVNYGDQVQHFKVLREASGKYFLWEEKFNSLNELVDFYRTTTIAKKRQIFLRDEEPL
T3 sequence (P62993 60-152 limits assumed): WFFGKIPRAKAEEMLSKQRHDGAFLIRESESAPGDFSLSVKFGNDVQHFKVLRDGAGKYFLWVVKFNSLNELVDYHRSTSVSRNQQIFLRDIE
T2 sequence (Q9H3Y6 whole entry): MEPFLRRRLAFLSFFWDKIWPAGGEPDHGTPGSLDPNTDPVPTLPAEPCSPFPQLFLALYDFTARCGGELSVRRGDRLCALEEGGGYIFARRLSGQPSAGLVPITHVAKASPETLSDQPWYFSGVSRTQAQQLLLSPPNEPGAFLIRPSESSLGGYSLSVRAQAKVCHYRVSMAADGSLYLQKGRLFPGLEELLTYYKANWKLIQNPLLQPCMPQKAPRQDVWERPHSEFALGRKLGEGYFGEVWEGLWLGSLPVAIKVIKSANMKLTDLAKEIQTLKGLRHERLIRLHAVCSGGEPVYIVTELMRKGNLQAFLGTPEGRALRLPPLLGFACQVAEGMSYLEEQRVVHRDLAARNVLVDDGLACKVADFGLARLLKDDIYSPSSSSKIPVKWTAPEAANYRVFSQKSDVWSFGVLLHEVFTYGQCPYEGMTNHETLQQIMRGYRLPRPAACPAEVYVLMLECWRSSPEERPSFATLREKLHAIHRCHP
T8 sequence (P07947 158-255 limits assumed): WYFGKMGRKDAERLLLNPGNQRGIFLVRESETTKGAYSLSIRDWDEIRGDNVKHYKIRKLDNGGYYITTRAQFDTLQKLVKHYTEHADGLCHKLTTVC
T14 sequence (P42685 116-208 limits assumed): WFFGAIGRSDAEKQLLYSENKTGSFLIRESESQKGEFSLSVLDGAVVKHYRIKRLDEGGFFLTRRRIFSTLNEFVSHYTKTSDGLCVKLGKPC
T12 sequence (O00459 330-425 limits assumed): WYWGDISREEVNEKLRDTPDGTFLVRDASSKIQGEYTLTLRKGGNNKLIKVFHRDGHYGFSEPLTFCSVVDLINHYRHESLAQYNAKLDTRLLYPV
T6 sequence (P51451 124-220 limits assumed): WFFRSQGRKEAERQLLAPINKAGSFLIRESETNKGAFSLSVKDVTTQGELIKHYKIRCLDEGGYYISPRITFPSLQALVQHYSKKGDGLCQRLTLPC

The Kd is a measure of binding affinity in units of concentration. On to `CC(=O)N[C@@H](CCCCN)C(=O)N1CCC[C@H]1C(=O)N[C@@H](Cc1ccccc1)C(=O)N[C@@H](Cc1ccc(OP(=O)(O)O)cc1)C(=O)N[C@H](C(=O)N[C@@H](CC(N)=O)C(=O)N[C@H](C(=O)N[C@@H](CCC(=O)O)C(=O)N[C@@H](Cc1ccccc1)C(N)=O)C(C)C)C(C)C` [Ac-KPFpYVNVEF-NH2] (Ac-KPF[pY]VNVEF-NH2), for which the Kd in experiment [1] amounted to 21.3 ± 4.83 nM; in experiment [2], 23600 ± 3030 nM.

`CC[C@H](C)[C@H](NC(=O)[C@H](Cc1ccc(OP(=O)(O)O)cc1)NC(=O)[C@H](CO)NC(C)=O)C(=O)N[C@@H](CC(N)=O)C(=O)N[C@H](C(=O)N1CCC[C@H]1C(=O)N[C@@H](Cc1ccccc1)C(=O)N[C@H](C(=O)N[C@@H](CO)C(N)=O)[C@@H](C)O)C(C)C` (Ac-S[pY]INVPFTS-NH2) came in with a dissociation constant Kd in experiment [3] of 69.4 ± 19.4 nM.

`CSCC[C@H](NC(=O)[C@H](Cc1ccc(OP(=O)(O)O)cc1)NC(=O)[C@H](CC(=O)O)NC(=O)[C@H](CO)NC(C)=O)C(=O)N[C@@H](CC(N)=O)C(=O)N[C@@H](CCSC)C(=O)N[C@H](C(=O)N1CCC[C@H]1C(=O)N[C@@H](CCCNC(=N)N)C(=O)N[C@@H](CCCNC(=N)N)C(=O)N1CCC[C@H]1C(N)=O)[C@@H](C)O` (Ac-SD[pY]MNMTPRRP-NH2): the figures for the Kd in experiment [4] and in experiment [5] were 244 ± 73.3 nM and 873 ± 159 nM, respectively.

As to `CC[C@H](C)[C@H](NC(=O)[C@@H]1CCCN1C(=O)[C@@H](NC(=O)[C@H](CCC(=O)O)NC(=O)[C@H](CCC(=O)O)NC(=O)[C@H](Cc1ccc(OP(=O)(O)O)cc1)NC(=O)[C@H](CCC(N)=O)NC(=O)[C@@H]1CCCN1C(=O)[C@H](CCC(=O)O)NC(C)=O)[C@@H](C)CC)C(=O)N[C@@H](Cc1ccc(O)cc1)C(=O)N[C@@H](CC(C)C)C(=O)N[C@@H](CCCCN)C(N)=O` (Ac-EPQ[pY]EEIPIYLK-NH2), the figures for the Kd in [6], in experiment [7] and in [8] were 488 ± 188 nM, 31.8 ± 2.15 nM and 234 ± 37.6 nM, respectively.

Turning to `CC(=O)N[C@@H](CCC(=O)O)C(=O)N[C@@H](CC(=O)O)C(=O)N[C@@H](CO)C(=O)N[C@@H](Cc1ccccc1)C(=O)N[C@@H](CC(C)C)C(=O)N[C@@H](CCC(N)=O)C(=O)N[C@@H](CCCNC(=N)N)C(=O)N[C@@H](Cc1ccc(OP(=O)(O)O)cc1)C(=O)N[C@@H](CO)C(=O)N[C@@H](CO)C(=O)N[C@@H](CC(=O)O)C(=O)N1CCC[C@H]1C(=O)N[C@H](C(N)=O)[C@@H](C)O` [Ac-EDSFLQRpYSSDPT-NH2], the Kd was 373 ± 114 nM in [9] and 146 ± 52 nM in [10].

On to `CSCC[C@H](NC(=O)[C@H](CC(=O)O)NC(=O)[C@H](CC(C)C)NC(=O)[C@H](CCSC)NC(=O)[C@@H]1CCCN1C(=O)[C@@H](NC(=O)[C@H](Cc1ccc(OP(=O)(O)O)cc1)NC(=O)[C@H](CC(=O)O)NC(=O)[C@@H](NC(=O)[C@H](CO)NC(=O)[C@H](CCC(=O)O)NC(=O)[C@H](CC(=O)O)NC(=O)[C@H](CCCCN)NC(=O)[C@H](CO)NC(=O)[C@H](CCSC)NC(=O)[C@H](CC(=O)O)NC(C)=O)C(C)C)C(C)C)C(=O)N[C@@H](CCCCN)C(N)=O` (Ac-DMSKDESVD[pY]VPMLDMK-NH2), for which the Kd came to 41.2 ± 9.77 nM in [11], 46.7 ± 6.22 nM in experiment [12] and 78.5 ± 26.1 nM in experiment [13].

`CC[C@H](C)[C@H](NC(=O)[C@@H]1CCCN1C(=O)[C@@H](NC(=O)[C@H](CCC(=O)O)NC(=O)[C@H](CCC(=O)O)NC(=O)[C@H](Cc1ccc(OP(=O)(O)O)cc1)NC(=O)[C@H](CCC(N)=O)NC(=O)[C@@H]1CCCN1C(=O)[C@H](CCC(=O)O)NC(C)=O)[C@@H](C)CC)C(=O)N[C@@H](CCCCN)C(=O)N[C@@H](CCC(N)=O)C(N)=O` (Ac-EPQ[pY]EEIPIKQ-NH2): the equilibrium dissociation constant (Kd) in experiment [14] amounted to 6980 ± 1930 nM.
